Measurements taken from patent US8518889B2, “Method of treating cancer with antibodies against long-form leukotriene B4 receptor BLT2” (Korea University Research & Business Foundation, priority 2007, dated 2013).

What was measured:
[1] = system: AsPC-1 cells; experiment: MTT assay, cell viability; assay type: cell-based, human; details: 2.5, 5 and 10 μM, 48 h
Experimental: (§1) To investigate the effect of the selective BLT2 antagonist LY255283 on pancreatic cancer cell proliferation and survival, cell viability was determined by MTT assay after Panc-1 and AsPC-1 cells were exposed to LY255283 for 48 hr.
(§2) Two human pancreatic cancer cell lines were used: Panc-1 and AsPC-1. Panc-1 cells were grown in DMEM, and AsPC-1 cells were grown in RPMl 1640.
(§3) Cells were plated in 96-well plates at a concentration of 10,000 cells/well. After incubation for 24 h, cells were serum-starved for 3 h, and then various concentrations (2.5 μM, 5 μM and 10 μM) of LY255283 were added. At the end of experiments, 25μ! of a 5 mg/ml MTT solution, diluted in PBS, was added into the 96-well plates. The plates were incubated at 37° C. in 5% CO2 atmosphere for 3 hr, allowing viable cells to reduce the yellow tetrazolium salt (MTT) into dark blue formazan crystals. At the end of the 3 h incubation, the MTT solution was removed and 100 μl of dimethyl sulfoxide was added to dissolve the formazan crystals. To ensure complete dissolution of the formazan crystals, the plates were vortexed gently at low speed for 10 min. The absorbance in individual wells was determined at 540 nm by a microplate reader.

[2] = system: Panc-1 cells; experiment: MTT assay, cell viability; assay type: cell-based, human; details: 2.5, 5 and 10 μM, 48 h
Experimental: as §1, §2, §3

[3] = system: Rat2-HO6 cells; experiment: metastasis survival analysis (Kaplan-Meier); assay type: in vivo, nude mice; details: 2.5 mg/kg intraperitoneal, 7 weeks
Experimental: All experimental animals used in this study were treated according to guidelines approved by the Institutional Animal Care and Use Committee of Korea University. Female nude mice (Charles River, Wilmington, Mass.), four-weeks-old at the time of injection, were used in the experimental metastasis assay. Rat-2, Rat2-HO6, and Rat2-BLT2 cells (5×10^5 cells) were prepared for injection from cultures in logarithmic growth at the time of harvest. The cells were briefly treated with 0.025% trypsin and 0.1% EDTA in Hanks' balanced salt solution and quickly removed from trypsin by centrifugation, resuspended in saline containing LTB4, and injected within 1 hr in 0.1 ml into the lateral tail vein with a 26-gauge needle. For inhibitor experiments, U75302 and LY255283 (0.25 mg/kg for BLT1 antagonist and 2.5 mg/kg for BLT2 antagonist) was injected intraperitoneally 3 and 5 days after injection of cells that were pretreated with inhibitors. The mice were maintained under aseptic barrier conditions until they were sacrificed at 21 days after cell injection (n=8, each group) to identify pulmonary metastasis or to investigate the mortality of mice at the end of the experiment (7 weeks) (n=8, each group). Metastasis survival was analyzed in Kaplan-Meyer plots.

[4] = system: VEGF-induced angiogenesis; experiment: VEGF-induced angiogenesis (Matrigel plug, HUVEC tube formation and transmigration); parameters: species or system FVB mice; details: mouse, in vivo
Experimental: FVB wild-type mice or BLT2 TG mice (female, 8-10 wk old) were subcutaneously injected with 400 μl of growth factor-reduced Matrigel from BD Biosciences containing heparin (20 units) and the agents to be tested. After 7 days, the mice were killed, and the solidified Matrigel was excised, fixed in 10% formalin, embedded in paraffin, cut into 5-μm sections and stained with anti-vWF antibody according to the manufacturer's instructions in the Blood Vessel Staining Kit (Chemicon). Each stained Matrigel section was photographed using a BX51 microscope equipped with a DP71 digital camera (Olympus), and the area of vWF-positive blood vessels was calculated using Image J software.
Growth factor-reduced Matrigel (300 μl; BD Biosciences, San Diego, Calif.) was added to each 24-well plate and polymerized for 12 h at 37° C. […] After 12 hr, five randomly selected areas were photographed using a CKX41 microscope equipped with a DP71 digital camera, and tube lengths were measured and quantified using Image J software, the image processing program developed at the U.S. National Institutes of Health (NIH). […]
The cells were then allowed to migrate to the lower side of the chambers, which contained LTB4, 12(S)-HETE or VEGF. […] Cell migration was quantified by counting the cells on the lower side of the filter after they were photographed using a CKX41 microscope equipped with a DP71 digital camera. […]

[5] = system: eosinophil; details: 10 μM; cited from earlier work

SMILES: CCc1cc(C(C)=O)c(O)cc1OCCCCCC(C)(C)c1nnn[nH]1 [LY255283, 1-[5-ethyl-2-hydroxy-4-[[6-methyl-6-(1H-tetrazol-5-yl)heptyl]oxy]phenyl]-ethanone]
- cell viability (MTT), AsPC-3 as printed [1]: diminished cell viability in dose-dependent manner
- cell viability (MTT), Panc-1 [2]: diminished cell viability in dose-dependent manner
- survival of mouse injected with Ras-oncogene expressing transformed cells [3]: extended the survival
- VEGF-induced angiogenesis [4]: suppressed VEGF-induced angiogenesis
- inhibit eosinophil chemotaxis [5]: 80%
